Assay: mn = molality of the nth substance listed, in mol/kg
Details: 100 kPa, Liquid; for speed of sound: Frequency=3 MHz, Sing-around technique in a fixed-path interferometer; for mass density: Vibrating tube method

O=C(N[C@H](CO)[C@H](O)c1ccc([N+](=O)[O-])cc1)C(Cl)Cl + O
Details	mass density, 288.15 K [kg/m3]	mass density, 298.15 K [kg/m3]	mass density, 308.15 K [kg/m3]	mass density, 318.15 K [kg/m3]	speed of sound, 288.15 K [m/s]	speed of sound, 298.15 K [m/s]	speed of sound, 308.15 K [m/s]	speed of sound, 318.15 K [m/s]
m1 = 0.0005	999.273	997.209	994.205	990.372	1466.9	1496	1519.6	1536.2
m1 = 0.001	999.429	997.363	994.356	990.522	1467	1496.1	1519.7	1536.4
m1 = 0.002	999.643	997.576	994.56	990.713	1467.1	1496.2	1519.9	1536.5
m1 = 0.004	999.922	997.847	994.831	990.992	1467.5	1496.7	1520.2	1536.8

NCC(=O)O [2-aminoacetic acid] + O
Details	mass density, 288.15 K [kg/m3]	mass density, 298.15 K [kg/m3]	mass density, 308.15 K [kg/m3]	mass density, 318.15 K [kg/m3]	speed of sound, 288.15 K [m/s]	speed of sound, 298.15 K [m/s]	speed of sound, 308.15 K [m/s]	speed of sound, 318.15 K [m/s]
m1 = 0.01095	999.494	997.428	994.433	990.57	1467.3	1496.5	1520	1536.6
m1 = 0.02116	999.815	–	994.686	990.869	1467.9	1497	1520.6	1537.1
m1 = 0.04014	1000.41	998.287	995.236	991.411	1469	1498	1521.5	1538
m1 = 0.06033	1001.05	–	995.832	991.989	1470.1	1499	1522.5	1539
m1 = 0.08023	1001.7	999.548	–	–	1471.2	1500.1	1523.5	1540
m1 = 0.1006	1002.36	1000.17	997.123	993.251	1472.4	1501.2	1524.5	1540.9
m1 = 0.15	1003.96	1001.73	–	994.665	1475.2	1503.8	1527	1543.3
m1 = 0.2003	1005.57	1003.28	1000.2	996.211	1478	1506.4	1529.5	1545.7

NCC(=O)NCC(=O)O [glycylglycine] + O
Details	mass density, 288.15 K [kg/m3]	mass density, 298.15 K [kg/m3]	mass density, 308.15 K [kg/m3]	mass density, 318.15 K [kg/m3]	speed of sound, 288.15 K [m/s]	speed of sound, 298.15 K [m/s]	speed of sound, 308.15 K [m/s]	speed of sound, 318.15 K [m/s]
m1 = 0.01033	999.704	997.627	994.594	990.758	1467.7	1496.8	1520.3	1536.9
m1 = 0.02031	1000.23	998.133	995.135	991.281	1468.6	1497.7	1521.2	1537.7
m1 = 0.04035	1001.4	999.259	996.28	992.375	1470.5	1499.5	1522.8	1539.3
m1 = 0.06012	1002.5	1000.39	997.363	993.41	1472.4	1501.3	1524.4	1540.8
m1 = 0.0802	1003.7	1001.51	998.463	994.52	1474.3	1503.1	1526	1542.4
m1 = 0.1011	1004.84	1002.62	999.564	995.646	1476.3	1505	1527.7	1544
m1 = 0.1502	1007.57	1005.27	1002.18	998.186	1480.9	1509.4	1531.8	1547.9
m1 = 0.1995	1010.2	1007.94	1004.8	1000.72	1485.5	1513.8	1535.8	1551.8

Reference: the NIST ThermoML archive (doi:10.1016/j.jct.2016.03.040)
